In patent US5891882A, “Benzopyranopyrrole and benzopyranopyridine α-1 adenergic compounds” (priority 1997, dated 1999):
Counter-ions that a name gives are not always drawn.

Assays:
Type in all cases: cell-based
[1] = target: T1, α-1B adrenoreceptor (rat spleen) (Rattus norvegicus, UniProt P15823); experiment: Functional antagonism: inhibition of phenylephrine-induced contraction of rat spleen; settings: rat spleen, phenylephrine-induced contraction, Schild plot
T1 construct: from tissue; host or cells: rat spleen
T1 sequence (P15823 1-515): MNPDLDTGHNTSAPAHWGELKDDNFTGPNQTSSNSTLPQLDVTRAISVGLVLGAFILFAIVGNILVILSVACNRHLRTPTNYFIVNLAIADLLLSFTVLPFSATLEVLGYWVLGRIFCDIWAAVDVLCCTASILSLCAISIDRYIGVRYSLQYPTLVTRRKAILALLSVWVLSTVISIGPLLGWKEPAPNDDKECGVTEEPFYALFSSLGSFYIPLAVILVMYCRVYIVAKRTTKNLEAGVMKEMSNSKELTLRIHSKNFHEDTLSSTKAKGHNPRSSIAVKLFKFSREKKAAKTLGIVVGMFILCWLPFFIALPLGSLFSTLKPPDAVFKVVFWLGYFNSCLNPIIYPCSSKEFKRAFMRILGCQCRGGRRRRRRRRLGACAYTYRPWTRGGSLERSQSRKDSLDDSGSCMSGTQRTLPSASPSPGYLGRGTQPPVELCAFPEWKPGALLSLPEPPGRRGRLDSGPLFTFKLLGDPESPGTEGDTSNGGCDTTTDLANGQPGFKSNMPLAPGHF
Description: (§1) Functional assays indicative of pharmacologically defined α-1 adrenoreceptors were used to further characterize compounds. Inhibition of phenylephrine (PE)-induced contraction of canine prostate smooth muscle can be correlated with α-1A adrenoreceptor activation. […] For each of these models, agonist dose response curves were repeated against increasing concentrations of test agent to derive a Schild plot [log ([…]) against log (molarity of test agent)] to determine the pA2.

[2] = target: T2, α-1A adrenoreceptor (canine prostate smooth muscle) (Canis lupus, UniProt A0A8I3NK63); experiment: Functional antagonism: inhibition of phenylephrine-induced contraction of canine prostate strips; settings: Schild plot
T2 construct: antagonism of phenylephrine-induced contraction (pA2, Schild)
T2 sequence (A0A8I3NK63 1-466): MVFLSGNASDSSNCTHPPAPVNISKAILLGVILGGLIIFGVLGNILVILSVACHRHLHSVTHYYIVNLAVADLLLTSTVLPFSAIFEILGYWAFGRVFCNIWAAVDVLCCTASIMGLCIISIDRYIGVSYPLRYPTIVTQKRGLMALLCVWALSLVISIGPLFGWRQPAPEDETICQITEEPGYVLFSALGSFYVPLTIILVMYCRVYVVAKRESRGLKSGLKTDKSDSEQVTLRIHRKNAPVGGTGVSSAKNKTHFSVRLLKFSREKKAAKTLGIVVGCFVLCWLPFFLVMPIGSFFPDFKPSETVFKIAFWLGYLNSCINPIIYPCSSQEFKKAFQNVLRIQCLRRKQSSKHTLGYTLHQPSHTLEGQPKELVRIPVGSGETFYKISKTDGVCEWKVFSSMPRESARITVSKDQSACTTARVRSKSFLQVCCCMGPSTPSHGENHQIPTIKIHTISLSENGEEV
Description: Canine prostate strips were used in vitro as previously described (Hieble, J. P., Boyce, Caine, M., Fed Proc., 45: 2609-2614 (1986)), to determine antagonist potencies phenylephrine-induced contractions.
as §1
Canine prostate strips were used in vitro as previously described (Hieble, J. P., Boyce, A. J. and Caine, M., Fed. Proc., 45: 2609-2614 (1986)), to determine antagonist potencies against phenylephrine-induced contractions.

[3] = target: T3, α-1 Adrenoceptors (Rat Aorta) (Rattus norvegicus, UniProt P23944); experiment: Functional antagonism at α-1 adrenoceptors, rat aorta; settings: read-out: In Vitro Characterization (pA2) Rat Aorta (converted)
T3 construct: Rat Aorta; from tissue; host or cells: rat aorta
T3 sequence (P23944 1-561): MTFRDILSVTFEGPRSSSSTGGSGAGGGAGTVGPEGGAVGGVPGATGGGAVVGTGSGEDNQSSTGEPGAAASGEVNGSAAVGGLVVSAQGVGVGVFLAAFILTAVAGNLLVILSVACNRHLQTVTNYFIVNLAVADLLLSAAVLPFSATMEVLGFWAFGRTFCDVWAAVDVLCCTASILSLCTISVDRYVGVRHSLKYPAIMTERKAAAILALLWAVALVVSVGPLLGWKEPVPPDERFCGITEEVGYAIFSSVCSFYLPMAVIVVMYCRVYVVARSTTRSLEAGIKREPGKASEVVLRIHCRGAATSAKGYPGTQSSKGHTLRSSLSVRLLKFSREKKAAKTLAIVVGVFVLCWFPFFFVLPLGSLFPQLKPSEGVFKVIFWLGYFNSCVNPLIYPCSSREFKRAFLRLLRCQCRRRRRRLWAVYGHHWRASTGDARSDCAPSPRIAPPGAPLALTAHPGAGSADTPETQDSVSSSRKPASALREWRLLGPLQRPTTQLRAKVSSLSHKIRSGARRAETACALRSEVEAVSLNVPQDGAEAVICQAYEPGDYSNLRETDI
Description: as §1

Row | In Vitro Characterization (pA2) Dog Prostate [2] | SMILES | In Vitro Characterization (pA2) Rat Spleen [1] | Kb [3]
1 |  | COc1cc2[nH]c(=O)n(CCCCN3C[C@@H]4COc5ccccc5[C@@H]4C3)c(=O)c2cc1OC.Cl (racemic) [Example 81, 3-[4-((±)-cis-1,2,3,3a,4,9b-hexahydro-[1]-benzopyrano[3,4-c]pyrrol-2-yl)butyl]-6,7-dimethoxy-quinazoline-2,4(1H,3H)-dione hydrochloride] | 7.41 | 
2 | 8.69 | COc1cccc2c1[C@@H]1CN(CCCCn3c(=O)[nH]c4c(sc5cccnc54)c3=O)C[C@@H]1CO2 [Example 1, 3-[4-((3aR,9bR)-cis-9-Methoxy-1,2,3,3a,4,9b-hexahydro-[1]-benzopyrano[3,4-c]pyrrol-2-yl)butyl]-pyrido[2',3':4,5]thieno[3,2-d]pyrimidine-2,4(1H,3H)-dione hydrochloride] |  | 
3 | 7.95 | COc1cccc2c1[C@H]1CN(CCCCn3c(=O)[nH]c4c(sc5cccnc54)c3=O)C[C@H]1CO2 [Example 2, 3-[4-((3aS,9bS)-cis-9-Methoxy-1,2,3,3a,4,9b-hexahydro-[1]-benzopyrano[3,4-c]pyrrol-2-yl)butyl]-pyrido[2',3':4,5]thieno[3,2-d]pyrimidine-2,4(1H,3H)-dione hydrochloride] |  | 
4 | 9.43 | COc1cccc2c1[C@@H]1CN(CCCCn3c(=O)[nH]c4c(sc5cccnc54)c3=O)C[C@H]1CO2 [Example 3, 3-[4-((3aS,9bR)-trans-9-Methoxy-1,2,3,3a,4,9b-hexahydro-[1]-benzopyrano[3,4-c]pyrrol-2-yl)butyl]-pyrido[2',3':4,5]thieno[3,2-d]pyrimidine-2,4(1H,3H)-dione hydrochloride] |  | 
5 | 9.91 | COc1cccc2c1[C@@H]1CN(CCCCn3c(=O)[nH]c4c(sc5ncc(Cl)nc54)c3=O)C[C@H]1CO2 [Example 13, 3-[4((3aS,9bR)-trans-9-Methoxy-1,2,3,3a,4,9b-hexahydro-[1]-benzopyrano[3,4-c]pyrrol-2-yl)butyl]-8-chloro-pyrazino[2',3':4,5]thieno[3,2-d]pyrimidine-2,4(1H,3H)-dione hydrochloride] |  | 0.0407 nM
6 | 9.15 | COc1ccc2sc3c(=O)n(CCCCN4C[C@H]5COc6cccc(OC)c6[C@@H]5C4)c(=O)[nH]c3c2n1 [Example 26, 3-[4-((3aS,9bR)-trans-9-Methoxy-1,2,3,3a,4,9b-hexahydro-[1]-benzopyrano[3,4-c]pyrrol-2-yl)butyl]-8-methoxy-pyrido[2',3':4,5]thieno[3,2-d]pyrimidine-2,4(1H,3H)-dione dihydrochloride] |  | 0.0661 nM
7 |  | COc1cccc2c1[C@@H]1CN(CCCCn3c(=O)[nH]c4c(sc5ncccc54)c3=O)C[C@@H]1CO2 [Example 34, hydrochloride] | 8.12 | 0.646 nM
8 |  | COc1cccc2c1[C@@H]1CN(CCCCn3c(=O)[nH]c4c(sc5ncccc54)c3=O)C[C@H]1CO2 [Example 44, 3-[4-((3aS,9bR)-trans-9-Methoxy-1,2,3,3a,4,9b-hexahydro-[1]-benzopyrano[3,4-c]pyrrol-2-yl)butyl]-pyrido[3',2':4,5]thieno[3,2-d]pyrimidine-2,4(1H,3H)-dione hydrochloride] | 8.35 | 0.0398 nM
9 |  | COc1ccc2c(n1)sc1c(=O)n(CCCCN3C[C@H]4COc5cccc(OC)c5[C@@H]4C3)c(=O)[nH]c12 [Example 46, 3-[4-((3aS,9bR)-trans-9-Methoxy-1,2,3,3a,4,9b-hexahydro-[1]-benzopyrano[3,4-c]pyrrol-2-yl)butyl]-7-methoxy-pyrido[3',2':4,5]thieno[3,2-d]pyrimidine-2,4(1H,3H)-dione hydrochloride] | 8.12 | 0.155 nM
10 |  | COc1cccc2c1[C@@H]1CN(CCCCn3c(=O)[nH]c4c(sc5nc(Cl)ccc54)c3=O)C[C@H]1CO2 [Example 47, 3-[4-((3aS,9bR)-trans-9-Methoxy-1,2,3,3a,4,9b-hexahydro-[1]-benzopyrano[3,4-c]pyrrol-2-yl)butyl]-7-chloro-pyrido[3',2':4,5]thieno[3,2-d]pyrimidine-2,4(1H,3H)-dione hydrochloride] | 7.95 | 0.204 nM
11 |  | COc1cccc2c1[C@@H]1CN(CCCCn3c(=O)[nH]c4c(sc5c(Cl)nccc54)c3=O)C[C@H]1CO2 [Example 54] | 7.31 | 
12 | 8.6 | COc1cccc2c1[C@@H]1CCN(CCCCn3c(=O)[nH]c4c(sc5ncc(Cl)nc54)c3=O)C[C@H]1CO2 [Example 97, 3-[4-((4aS,10bR)-trans-10-Methoxy-1,3,4,4a,5,10b-hexahydro-2H-[1]-benzopyrano[3,4-c]pyrido-3-yl)butyl]-8-chloro-pyrazino[2',3':4,5]thieno[3,2-d]pyrimidine-2,4(1H,3H)-dione dihydrochloride] |  | 

Row | SMILES | In Vitro Characterization (pA2) Dog Prostate [2] | In Vitro Characterization (pA2) Rat Spleen [1] | Kb [3]
13 | COc1cccc2c1OC[C@H]1CN(CCn3c(=O)[nH]c4c(sc5ccccc54)c3=O)C[C@@H]21.Cl (racemic) [Example 67, 3-[2-((±)-cis-6-Methoxy-1,2,3,3a,4,9b-hexahydro-[1]-benzopyrano[3,4-c]pyrrol-2-yl)ethyl]-[1]-benzthieno[3,2-d]pyrimidine-2,4(1H,3H)-dione hydrochloride] | 7.33 | 6.83 | 
14 | COc1cccc2c1[C@@H]1CN(CCCCn3c(=O)[nH]c4c(sc5ncc(-c6ccccc6)nc54)c3=O)C[C@@H]1CO2 [Example 39, 3-[4-((3aR,9bR)-cis-9-Methoxy-1,2,33a,4,9b-hexahydro-[1]-benzopyrano[3,4-c]pyrrol-2-yl)butyl]-8-phenyl-pyrazino[2',3':4,5]thieno[3,2-d]pyrimidine-2,4(1H,3H)-dione hydrochloride] | 8.52 | 6.83 | 12.9 nM
15 | COc1cccc2c1[C@@H]1CN(CCCCn3c(=O)[nH]c4c(sc5ncc(-c6ccccc6)nc54)c3=O)C[C@H]1CO2 [Example 50, 3-[4-((3aS,9bR)-trans-9-Methoxy-1,2,3,3a,4,9b-hexahydro-[1]-benzopyrano[3,4-c]pyrrol-2-yl)butyl]-8-phenyl-pyrazino[2',3':4,5]thieno[3,2-d]pyrimidine-2,4(1H,3H)-dione hydrochloride] | 8.45 | 6.5 | 0.389 nM
16 | COc1cccc2c1[C@@H]1CCN(CCCCn3c(=O)[nH]c4c(sc5cccnc54)c3=O)C[C@H]1CO2 [Example 95, 3-[4-((4aS,10bR)-trans-10-Methoxy-1,3,4,4a,5,10b-hexahydro-2H-[1]-benzopyrano[3,4-c]pyrido-3-yl)butyl]-pyrido[2',3':4,5]thieno[3,2-d]pyrimidine-2,4(1H,3H)-dione dihydrochloride] | 8.58 |  | 
